# In patent publication US10501479B2, “Benzenesulfonyl-asymmetric ureas and medical uses thereof” (HELSINN HEALTHCARE SA, priority 2016, dated 2019):
# pEC50, pIC50: −log10 of the molar value. Like-named read-outs stand apart in the source and are kept apart here.
# Columns and labels:
# Type in all cases: cell-based
# [1] = target: T1, recombinant human ghrelin receptor (HEK293/GRLN) (Homo sapiens, UniProt Q92847); assay: Ghrelin inverse agonist potency (EC50) with IP-1 (IP-One HTRF) assay; conditions: IP-1 assay
# T1 construct: expressed in transfected cells
# Outline: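 HEK293/GRLN cells were seeded 18-22 hours before the test, then exposed to compound in stimulation buffer for 1 hour at 37° C, 5% CO2. IP-1 was detected by IP-One HTRF (IP1-d2 plus Tb-cryptate, 1 hour RT), reading 620 and 665 nm; the inverse agonist EC50 was derived from this.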
# [2] = target: T2, GHSR-1a (HEK293/GHSR1a cell line) (Homo sapiens, UniProt Q92847); assay: Ghrelin agonist potency (EC50) with calcium FLIPR assay
# T2 construct: expressed in transfected cells; host or cells: HEK293/GHSR1a cell line
# Outline: (§1)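 Potency values were estimated from dose-response curves of relative fluorescence, with calcium followed for 2 minutes after additions at t=20 sec. Agonism was tested with compound alone. Antagonism was tested with compound plus 10 nM ghrelin and scored as a reduction of the ghrelin signal.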
# [3] = target: T2, GHSR-1a (HEK293/GHSR1a cell line); assay: Ghrelin antagonist potency (IC50) with calcium FLIPR assay, ghrelin 10 nM
# Outline: as §1
# [4] = ghrelin inverse agonist potency, read-out: Activity EC50
# [5] = ghrelin agonist potency, read-out: Activity EC50/EMax
# [6] = ghrelin antagonist potency, read-out: Activity IC50
# [7] = HEK293/GRLN, read-out: Activity EC50 (ghrelin inverse agonist potency)
# [8] = HEK293/GHSR1a, read-out: Activity EC50/EMax: EC50 (ghrelin agonist potency)
# [9] = HEK293/GHSR1a, ghrelin 10 nM, read-out: Activity IC50 (ghrelin antagonist potency)
# T1 sequence (Q92847 whole entry): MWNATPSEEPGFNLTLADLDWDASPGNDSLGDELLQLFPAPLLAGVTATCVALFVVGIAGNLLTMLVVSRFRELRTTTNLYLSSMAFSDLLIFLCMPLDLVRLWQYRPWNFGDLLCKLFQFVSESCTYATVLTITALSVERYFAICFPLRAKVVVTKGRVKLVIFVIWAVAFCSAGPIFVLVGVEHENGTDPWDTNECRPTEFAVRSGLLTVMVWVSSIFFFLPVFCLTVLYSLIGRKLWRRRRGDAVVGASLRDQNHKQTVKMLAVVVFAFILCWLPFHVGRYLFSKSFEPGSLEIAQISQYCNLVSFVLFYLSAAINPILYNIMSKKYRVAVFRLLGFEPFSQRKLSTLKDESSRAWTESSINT
# T2 sequence (Q92847 whole entry): as above
Compound,"pEC50 [1, 4]","pEC50 [2, 5]","pIC50 [3, 6]","pEC50 [1, 7]","pEC50 [2, 8]","pIC50 [3, 9]"
"CN1Cc2ccc(CS(=O)(=O)c3ccc(NC(=O)N(O)Cc4ccccc4)cc3)cc2C1 [H1503, 1-benzyl-1-hydroxy-3-(4-(((2-methylisoindolin-5-yl)methyl)sulfonyl)phenyl)urea]",7.00,< 4.52,6.29,–,–,–
"CC(NC(=O)Nc1ccc(S(=O)(=O)CC2CCC(NCC3CC3)CC2)cc1)c1cccc(Cl)c1Cl (stereo not drawn) [H1371, 1-(4-(((4-((cyclopropylmethyl)amino)cyclohexyl)methyl)sulfonyl)phenyl)-3-(1-(2,3-dichlorophenyl)ethyl)urea]",–,–,–,6.64,< 4.52,5.61
"CCN(CC)C1CCC(CS(=O)(=O)c2ccc(NC(=O)NC(C)c3cccc(Cl)c3Cl)cc2)CC1 (stereo not drawn) [H1372, 1-(1-(2,3-dichlorophenyl)ethyl)-3-(4-(((4-(diethylamino)cyclohexyl)methyl)sulfonyl)phenyl)urea]",–,–,–,6.03,< 4.52,4.74
"CC(NC(=O)Nc1ccc(S(=O)(=O)Cc2ccc3c(c2)CNC3)cc1-c1cn[nH]c1)c1ccccc1 (stereo not drawn) [H1532, 1-(4-((isoindolin-5-ylmethyl)sulfonyl)-2-(1H-pyrazol-4-yl)phenyl)-3-(1-phenylethyl)urea]",7.16,< 4.52,5.78,–,–,–
"C[C@@H](NC(=O)Nc1ccc(S(=O)(=O)Cc2ccc3c(c2)C(F)CN(C)C3)cc1)c1ccccc1 (stereo partly drawn) [H1539, 1-(4-(((4-fluoro-2-methyl-1,2,3,4-tetrahydroisoquinolin-6-yl)methyl)sulfonyl)phenyl)-3-((R)-1-phenylethyl)urea]",6.58,< 4.52,5.09,–,–,–
"CC(NC(=O)Nc1ccc(S(=O)(=O)Cc2ccc3c(c2)C[N+](C)([O-])C3)cc1)c1ccccc1 (stereo not drawn) [H1350, 2-methyl-5-(((4-(3-(1-phenylethyl)ureido)phenyl)sulfonyl)methyl)isoindoline 2-oxide]",–,–,–,5.13,< 4.52,4.74
"CN1Cc2ccc(CS(=O)(=O)c3ccc(NC(=O)N[C@@H]4CCCc5ccccc54)cc3)cc2C1 [H1336, (R)-1-(4-(((2-methylisoindolin-5-yl)methyl)sulfonyl)phenyl)-3-(1,2,3,4-tetrahydronaphthalen-1-yl)urea]",–,–,–,6.58,< 4.52,6.42
"CC(NC(=O)Nc1ccc(S(=O)(=O)Cc2ccc3c(c2)CNC3)cc1-c1ccncc1)c1ccccc1 (stereo not drawn) [H1534, 1-(4-((isoindolin-5-ylmethyl)sulfonyl)-2-(pyridin-4-yl)phenyl)-3-(1-phenylethyl)urea]",7.05,< 4.52,5.78,–,–,–
"COc1cc(S(=O)(=O)Cc2ccc3c(c2)CCN(C)C3)ccc1NC(=O)N(O)C(C)c1ccccc1 (stereo not drawn) [H1525, 1-hydroxy-3-(2-methoxy-4-(((2-methyl-1,2,3,4-tetrahydroisoquinolin-6-yl)methyl)sulfonyl)phenyl)-1-(1-phenylethyl)urea]",7.59,< 4.52,7.43,–,–,–
"CC(c1ccccc1)N(C)C(=O)Nc1ccc(S(=O)(=O)Cc2ccc3c(c2)CN(C)C3)cc1O (stereo not drawn) [H1474, 3-(2-hydroxy-4-(((2-methylisoindolin-5-yl)methyl)sulfonyl)phenyl)-1-methyl-1-(1-phenylethyl)urea]",6.88,< 4.52,6.15,–,–,–
"O=C(NCc1cccnc1)Nc1ccc(S(=O)(=O)Cc2ccc3c(c2)CNC3)cc1 [H1301, 1-(4-((isoindolin-5-ylmethyl)sulfonyl)phenyl)-3-(pyridin-3-ylmethyl)urea]",–,–,–,5.94,< 4.52,5.35
"CC(NC(=O)Nc1ccc2c(c1)S(=O)(=O)C(c1ccc3c(c1)CNC3)C2=O)c1ccccc1 (stereo not drawn) [H1522, 1-(2-(isoindolin-5-yl)-1,1-dioxido-3-oxo-2,3-dihydrobenzo[b]thiophen-6-yl)-3-(1-phenylethyl)urea]",5.72,< 4.52,5.41,–,–,–
"CN1Cc2ccc(CS(=O)(=O)c3ccc(NC(=O)NC4CNc5ccccc54)cc3)cc2C1 (stereo not drawn) [H1358, 1-(indolin-3-yl)-3-(4-(((2-methylisoindolin-5-yl)methyl)sulfonyl)phenyl)urea]",–,–,–,5.74,< 4.52,5.73
"COc1cc(S(=O)(=O)Cc2cc(F)c3c(c2)CCNC3)ccc1NC(=O)NC(C)c1cccc(Cl)c1Cl (stereo not drawn) [H1424, 1-(1-(2,3-dichlorophenyl)ethyl)-3-(4-(((8-fluoro-1,2,3,4-tetrahydroisoquinolin-6-yl)methyl)sulfonyl)-2-methoxyphenyl)urea]",–,–,–,8.05,< 4.52,7.81
"COC(=O)c1cc(S(=O)(=O)Cc2ccc3c(c2)CN(C)C3)ccc1NC(=O)NC(C)c1ccccc1 (stereo not drawn) [H1466, methyl 5-(((2-methylisoindolin-5-yl)methyl)sulfonyl)-2-(3-(1-phenylethyl)ureido)benzoate]",7.77,< 4.52,7.14,–,–,–
"NC(=O)C(NC(=O)Nc1ccc(S(=O)(=O)Cc2ccc3c(c2)CNC3)cc1)c1ccccc1 (stereo not drawn) [H1457, 2-(3-(4-((isoindolin-5-ylmethyl)sulfonyl)phenyl)ureido)-2-phenylacetamide]",6.91,< 4.52,4.78,–,–,–
"CC(NC(=O)Nc1ccc(S(=O)(=O)Cc2ccc3c(c2)CNC3)cc1CO)c1ccccc1 (stereo not drawn) [H1467, 1-(2-(hydroxymethyl)-4-((isoindolin-5-ylmethyl)sulfonyl)phenyl)-3-(1-phenylethyl)urea]",7.71,< 4.52,6.92,–,–,–
"CN1Cc2ccc(CS(=O)(=O)c3ccc(NC(=O)NC4COc5ccccc54)cc3)cc2C1 (stereo not drawn) [H1331, 1-(2,3-dihydrobenzofuran-3-yl)-3-(4-(((2-methylisoindolin-5-yl)methyl)sulfonyl)phenyl)urea]",–,–,–,6.89,< 4.52,6.67
"CC(c1ccccc1)N(C)C(=O)Nc1ccc(S(=O)(=O)Cc2ccc3c(c2)CNC3)cc1O (stereo not drawn) [H1460, 3-(2-hydroxy-4-((isoindolin-5-ylmethyl)sulfonyl)phenyl)-1-methyl-1-(1-phenylethyl)urea]",6.79,< 4.52,6.27,–,–,–
"CC(NC(=O)Nc1ccc(S(=O)(=O)Cc2ccc(CN3CCOCC3)cc2)cc1)c1ccccc1 (stereo not drawn) [H1275, 1-(4-((4-(morpholinomethyl)benzyl)sulfonyl)phenyl)-3-(1-phenylethyl)urea]",–,–,–,6.51,< 4.52,5.99
"C[C@@H](NC(=O)Nc1ccc(S(=O)(=O)Cc2ccc3c(c2)C(F)CNC3)cc1)c1ccccc1 (stereo partly drawn) [H1540, 1-(4-(((4-fluoro-1,2,3,4-tetrahydroisoquinolin-6-yl)methyl)sulfonyl)phenyl)-3-((R)-1-phenylethyl)urea]",6.69,< 4.52,5.13,–,–,–
"O=C(Nc1ccc(S(=O)(=O)Cc2ccc3c(c2)CNC3)cc1)N(O)Cc1ccccc1 [H1502, 1-benzyl-1-hydroxy-3-(4-((isoindolin-5-ylmethyl)sulfonyl)phenyl)urea]",7.45,< 4.52,6.78,–,–,–
"CC(NC(=O)Nc1ccc(S(=O)(=O)Cc2ccc3c(c2)C(F)(F)CNC3)cc1)c1ccccc1 (stereo not drawn) [H1545, 1-(4-(((4,4-difluoro-1,2,3,4-tetrahydroisoquinolin-6-yl)methyl)sulfonyl)phenyl)-3-(1-phenylethyl)urea]",7.72,< 4.52,5.76,–,–,–
"COc1cc(S(=O)(=O)Cc2ccc3c(c2)CCN(C)C3)ccc1NC(=O)N[C@H](C)c1ccc(OC)c(Cl)c1Cl [H1422, (R)-1-(1-(2,3-dichloro-4-methoxyphenyl)ethyl)-3-(2-methoxy-4-(((2-methyl-1,2,3,4-tetrahydroisoquinolin-6-yl)methyl)sulfonyl)phenyl)urea]",–,–,–,9.15,< 4.52,7.53
"COc1ccc(C(C)NC(=O)Nc2ccc(S(=O)(=O)Cc3ccc4c(c3)CNC4)cc2)cc1 (stereo not drawn) [H1298, 1-(4-((isoindolin-5-ylmethyl)sulfonyl)phenyl)-3-(1-(4-methoxyphenyl)ethyl)urea]",–,–,–,6.94,< 4.52,6.30
"CC(NC(=O)Nc1ccc(S(=O)(=O)CC2CCCN(C(C)C)C2)cc1)c1cccc(Cl)c1Cl (stereo not drawn) [H1376, 1-(1-(2,3-dichlorophenyl)ethyl)-3-(4-(((1-isopropylpiperidin-3-yl)methyl)sulfonyl)phenyl)urea]",–,–,–,6.20,< 4.52,5.16
"CC(NC(=O)Nc1ccc(S(=O)(=O)Cc2ccc3c(c2)CNC3)cc1)c1cccnc1 (stereo not drawn) [H1273, 1-(4-((isoindolin-5-ylmethyl)sulfonyl)phenyl)-3-(1-(pyridin-3-yl)ethyl)urea]",–,–,–,6.72,< 4.52,5.99
"CC(=O)Oc1ccc(C(C)NC(=O)Nc2ccc(S(=O)(=O)Cc3ccc4c(c3)CNC4)cc2)cc1 (stereo not drawn) [H1310, 4-(1-(3-(4-((isoindolin-5-ylmethyl)sulfonyl)phenyl)ureido)ethyl)phenylacetate]",–,–,–,6.74,< 4.52,6.58
"CC(NC(=O)Nc1ccc(S(=O)(=O)Cc2ccc3c(c2)CN(C)C3)cc1)c1ccc2c(c1)OCO2 (stereo not drawn) [H1453, 1-(1-(benzo[d][1,3]dioxol-5-yl)ethyl)-3-(4-(((2-methylisoindolin-5-yl)methyl)sulfonyl)phenyl)urea]",–,–,–,7.33,< 4.52,6.96
